Test results taken from PubChem BioAssay (NCI).
Where “and” joins values, the source holds several entries; their conditions need not be identical. Equal entries are not always repeated.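 Following 48 hours of exposure in 96-well plates, responses at five concentrations were used to interpolate endpoints linearly. At the GI50, growth is halved. Definition used: TGI = concentration required for complete inhibition of growth.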

How the values were obtained:
Test in all cases: growth of human tumour cells (NCI), 48 h
UACC-257 melanoma = test system: UACC-257 melanoma
MOLT-4 leukemia = test system: MOLT-4 leukemia
HCC-2998 colon = test system: HCC-2998 colon
SF-539 CNS = test system: SF-539 CNS
NCI-H460 lung = test system: NCI-H460 lung
OVCAR-8 ovarian = test system: OVCAR-8 ovarian
A498 renal = test system: A498 renal
COLO 205 colon = test system: COLO 205 colon
EKVX NSCLC = test system: EKVX NSCLC
HS 578T breast = test system: HS 578T breast

SMILES	GI50 (UACC-257 melanoma)	TGI (UACC-257 melanoma)	GI50 (MOLT-4 leukemia)	TGI (MOLT-4 leukemia)	GI50 (HCC-2998 colon)	TGI (HCC-2998 colon)	GI50 (SF-539 CNS)	TGI (SF-539 CNS)	GI50 (NCI-H460 lung)	TGI (NCI-H460 lung)	GI50 (OVCAR-8 ovarian)	TGI (OVCAR-8 ovarian)	GI50 (A498 renal)	TGI (A498 renal)	TGI (COLO 205 colon)	TGI (EKVX NSCLC)	GI50 (COLO 205 colon)	GI50 (EKVX NSCLC)	GI50 (HS 578T breast)	TGI (HS 578T breast)
CC(=O)[O-].O=[N+]([O-])c1ccc([O-])c(C=NCCN=Cc2cc([N+](=O)[O-])ccc2[O-])c1.[Mn+3]	> 100 µM	> 100 µM	> 100 µM	> 100 µM	74.5 µM	> 100 µM	> 100 µM	> 100 µM	> 100 µM	> 100 µM	> 100 µM	> 100 µM	> 100 µM	> 100 µM						
C=C1c2ccccc2N(S(=O)(=O)c2ccc(C)cc2)C12CCCCC2		> 100 µM		> 100 µM		> 100 µM		> 100 µM		> 100 µM		> 100 µM			> 100 µM	> 100 µM				
O=C1[C@H]2ON(c3ccccc3)C(c3cccc([N+](=O)[O-])c3)[C@H]2C(=O)N1c1ccc(Cc2ccc(N3C(=O)[C@@H]4ON(c5ccccc5)C(c5cccc([N+](=O)[O-])c5)[C@@H]4C3=O)cc2)cc1 (stereo not given in full)		> 100 µM		> 100 µM		> 100 µM		> 100 µM		> 100 µM		> 100 µM		97.5 µM	> 100 µM	> 100 µM				
C/C(=N\O)[C@H]1CC[C@@]2(C)[C@@H]3CC[C@H]4C(C)(C)/C(=N/O)CC[C@@]45CC35CC[C@]12C (stereo not given in full)	5.53 µM	10.1 µM	3.26 µM	> 16.7 µM			3.14 µM	6.72 µM	5.05 µM	> 16.7 µM	3.64 µM	9.39 µM	2.46 µM	5.87 µM	> 16.7 µM	> 16.7 µM	5.75 µM	5.66 µM	2.23 µM	7.54 µM
O=c1ncccn1C1OC(CO)C(O)C1F (stereo not given)		> 100 µM		> 100 µM		> 100 µM	> 100 µM	> 100 µM	> 100 µM	> 100 µM		> 100 µM		> 100 µM	> 100 µM	> 100 µM				
CC12O[Te]34OC1(C)C(C)(O3)C2(C)O4		33.6 µM		34.6 µM		14.1 µM		28.2 µM		61.3 µM		24.4 µM		> 8.75 µM	31.1 µM	62.6 µM				
O=C1OC(c2ccc(Cl)c3ccccc23)c2ccccc21 (stereo not given)		> 100 µM		> 100 µM		> 100 µM		> 100 µM		> 100 µM		> 100 µM		> 100 µM	> 100 µM	> 100 µM				
C=CCN(N=O)C(=O)ON1C(=O)CCC1=O		> 100 µM		> 100 µM		> 100 µM		> 100 µM		> 100 µM		> 100 µM		> 100 µM	> 100 µM	> 100 µM				
CC1(C)Oc2ccccc2N2O[C@@H]3C(=O)N(c4ccccc4)C(=O)[C@@H]3C21c1ccccc1 (stereo not given in full)		78.7 µM		> 100 µM		> 100 µM		31.7 µM		> 100 µM				47.3 µM	> 100 µM	> 100 µM				
Cc1nnc(N=Nc2c(O)[nH]c3ccccc23)[nH]c1=O		> 100 µM		> 100 µM				> 100 µM		> 100 µM		> 100 µM		> 100 µM		> 100 µM				> 100 µM
CCC1(Cl)C(=O)NC(=O)N(C2CC(O)C(CO)O2)C1N=[N+]=[N-] (stereo not given)		> 100 µM		> 100 µM		> 100 µM		> 100 µM		> 100 µM		> 100 µM		> 100 µM	> 100 µM	> 100 µM				
CC[C@H](C)[C@H](NC(=O)N[C@@H](C)c1ccccc1)C(=O)N(C)[C@H](C[C@@H](OC(C)=O)c1nc(C(=O)N[C@@H](Cc2ccccc2)C[C@H](C)C(=O)OC)cs1)C(C)C	> 100 µM	> 100 µM			28.8 µM	> 100 µM	20.2 µM	56.6 µM	26.6 µM	95.5 µM	35.4 µM	> 100 µM			57.1 µM	> 100 µM	20.1 µM	37.5 µM	15.9 µM	56.7 µM
C#CCn1cc(C=C2C(=O)NC(=S)NC2=O)c2cc(Cl)ccc21	2.88 µM	8.63 µM	2.44 µM	6.38 µM	1.75 µM	3.39 µM	1.82 µM	3.49 µM	2.29 µM	5.12 µM	2.72 µM	7.44 µM			5.28 µM	5.92 µM	2.22 µM	2.14 µM	2.34 µM	7.6 µM
Nc1nc(Cl)cc(NCCCCCCNc2cc(Cl)nc(N)n2)n1		> 100 µM		> 100 µM		> 100 µM		> 100 µM		> 100 µM		> 100 µM			> 100 µM	> 100 µM				
CCOc1ccccc1NC(=O)CCC(=O)NN		> 100 µM		> 100 µM		> 100 µM		> 100 µM		> 100 µM		> 100 µM		> 100 µM	> 100 µM					
Cc1cc(S(N)(=O)=O)c(S/C(=N\NS(=O)(=O)c2ccccc2)c2ccc(Cl)c(Cl)c2)cc1Cl	40.3 µM	> 100 µM	30.3 µM	> 100 µM			19.3 µM	64.3 µM	29.5 µM	> 100 µM	32.3 µM	> 100 µM	35 µM	87.1 µM	> 100 µM	> 100 µM	45.7 µM	48.1 µM	29.9 µM	99.3 µM
O=c1/c(=C/c2ccc3c(c2)OCO3)sc2nnc(Cc3ccccc3)n12		> 100 µM		> 100 µM		> 100 µM		> 100 µM		> 100 µM		> 100 µM		> 100 µM	> 100 µM	> 100 µM				
COc1cc(-c2nn3c(=O)n(-c4ccc(Cl)cc4)c(=O)nc3s2)cc(OC)c1OC		> 100 µM	30.7 µM	50 µM and > 100 µM	> 50 µM	> 100 µM	32.9 µM	50 µM and 45.6 µM	> 50 µM	> 100 µM		> 100 µM	> 50 µM	> 100 µM	> 100 µM	> 100 µM	> 50 µM	> 50 µM		
